# Reference: patent publication US8980926B2, “2-aminoindole compounds and methods for the treatment of malaria” (Genzyme Corporation, priority 2009, dated 2015)
# pIC50: −log10 of the molar value.
# System: P. falciparum strain 3D7
# Test: In vitro potency against P. falciparum strain 3D7 (SYBR green/DAPI)
# Assay type: cell-based
# Conditions: Plasmodium falciparum, reductions in parasitemia, read-out: IC50 values
row,Structure (SMILES),pIC50
1,NC1=Nc2ccccc2C1(O)c1ccccc1 (stereo not shown) [Compound 4],6.30 to 7.00
2,COc1ccc(C2(O)C(N)=Nc3ccccc32)cc1 (stereo not shown) [Compound 5],6.30 to 7.00
3,CC(C)(C)c1ccc(C2(O)C(N)=Nc3ccccc32)cc1 (stereo not shown) [Compound 6],6.00 to 6.30
4,COc1cccc(C2(O)C(N)=Nc3ccccc32)c1 (stereo not shown) [Compound 7],6.30 to 7.00
5,NC1=Nc2ccccc2C1(O)c1ccc(C(F)(F)F)cc1 (stereo not shown) [Compound 8],6.30 to 7.00
6,CC1(O)C(N)=Nc2ccccc21 (stereo not shown) [Compound 9],5.30 to 6.00
7,NC1=Nc2ccccc2C1(O)c1cccc2ccccc12 (stereo not shown) [Compound 10],7.00 to 9.00
8,NC1=Nc2ccc(Cl)cc2C1(O)c1ccc(F)c2ccccc12 (stereo not shown) [Compound 12],7.00 to 9.00
9,NC1=Nc2ccc(Cl)cc2C1(O)c1ccc2c(c1)OCO2 (stereo not shown) [Compound 13],6.30 to 7.00
10,NC1=Nc2ccc(Cl)cc2C1(O)c1cccc(C(F)(F)F)c1 (stereo not shown) [Compound 14],6.30 to 7.00
11,CN(C)c1cccc(C2(O)C(N)=Nc3ccccc32)c1 (stereo not shown) [Compound 15],6.30 to 7.00
12,NC1=Nc2ccc(Cl)cc2C1(O)c1ccc(C(F)(F)F)cc1 (stereo not shown) [Compound 16],6.30 to 7.00
13,NC1=Nc2ccc(Cl)cc2C1(O)c1ccc(N2CCOCC2)cc1 (stereo not shown) [Compound 17],6.00 to 6.30
14,CC(C)(C)c1ccc(C2(O)C(N)=Nc3ccc(Cl)cc32)cc1 (stereo not shown) [Compound 18],6.30 to 7.00
15,NC1=Nc2ccccc2C1(O)c1cccc(C(F)(F)F)c1 (stereo not shown) [Compound 19],6.30 to 7.00
16,NC1=Nc2ccccc2C1(O)c1ccc(N2CCOCC2)cc1 (stereo not shown) [Compound 20],6.00 to 6.30
17,CN(C)c1cccc(C2(O)C(N)=Nc3ccc(Cl)cc32)c1 (stereo not shown) [Compound 21],6.30 to 7.00
18,Cc1ccc(C2(O)C(N)=Nc3ccc(Cl)cc32)cc1 (stereo not shown) [Compound 22],6.00 to 6.30
19,COc1cccc(C2(O)C(N)=Nc3ccc(Cl)cc32)c1 (stereo not shown) [Compound 23],6.30 to 7.00
20,NC1=Nc2ccc(Cl)cc2C1(O)c1ccc2ccccc2c1 (stereo not shown) [Compound 24],6.30 to 7.00
21,NC1=Nc2ccccc2C1(O)c1ccc2ccccc2c1 (stereo not shown) [Compound 25],6.30 to 7.00
22,CCCCC1(O)C(N)=Nc2ccc(Cl)cc21 (stereo not shown) [Compound 26],6.30 to 7.00

row,Structure (SMILES),pIC50
1,CC(C)c1ccccc1C1(O)C(N)=Nc2ccc(Cl)cc21 (stereo not shown) [Compound 27],7.00 to 9.00
2,NC1=Nc2ccc(Cl)cc2C1(O)c1cccc(F)c1 (stereo not shown) [Compound 28],6.30 to 7.00
3,Cc1ccccc1C1(O)C(N)=Nc2ccccc21 (stereo not shown) [Compound 30],6.30 to 7.00
4,NC1=Nc2cccc(Cl)c2C1(O)c1ccccc1 (stereo not shown) [Compound 33],6.30 to 7.00
5,NC1=Nc2cc(Cl)ccc2C1(O)c1ccccc1 (stereo not shown) [Compound 34],6.00 to 6.30
6,NC1=Nc2c(Cl)cccc2C1(O)c1ccccc1 (stereo not shown) [Compound 35],5.30 to 6.00
7,NC1=Nc2ccc(F)cc2C1(O)c1ccccc1 (stereo not shown) [Compound 36],6.30 to 7.00
8,NC1=Nc2ccc(Cl)c(Cl)c2C1(O)c1ccccc1 (stereo not shown) [Compound 40],6.30 to 7.00
9,NC1=Nc2ccc(Br)cc2C1(O)c1ccccc1 (stereo not shown) [Compound 41],7.00 to 9.00
10,COc1ccc2c(c1)C(O)(c1ccccc1)C(N)=N2 (stereo not shown) [Compound 42],6.30 to 7.00
11,NC1=Nc2ccc(Cl)cc2C1(O)CC1CCCCC1 (stereo not shown) [Compound 43],7.00 to 9.00
12,COc1cc(C2(O)C(N)=Nc3ccc(Cl)cc32)c2c(ccn2C)c1 (stereo not shown) [Compound 44],4.82 to 5.30
13,COc1cc(C2(O)C(N)=Nc3ccc(Cl)cc32)c2ccccc2c1 (stereo not shown) [Compound 45],4.82 to 5.30
14,NC1=Nc2c(ccc(Cl)c2Cl)C1(O)c1ccccc1 (stereo not shown) [Compound 46],5.30 to 6.00
15,NC1=Nc2ccc(OC(F)(F)F)cc2C1(O)c1ccccc1 (stereo not shown) [Compound 47],5.30 to 6.00
16,CCCCc1ccc2c(c1)C(O)(c1ccccc1)C(N)=N2 (stereo not shown) [Compound 48],6.00 to 6.30
17,NC1=Nc2ccc(Cl)cc2C1(O)c1ccccn1 (stereo not shown) [Compound 49],5.30 to 6.00
18,NC1=Nc2cc(Cl)c(Cl)cc2C1(O)c1ccccc1 (stereo not shown) [Compound 51],6.00 to 6.30
19,NC1=Nc2cc(Cl)cc(Cl)c2C1(O)c1ccccc1 (stereo not shown) [Compound 52],5.30 to 6.00
20,CC(C)c1ccc2c(c1)C(O)(c1ccccc1)C(N)=N2 (stereo not shown) [Compound 53],6.00 to 6.30
21,CC(C)CC1(O)C(N)=Nc2ccc(Cl)cc21 (stereo not shown) [Compound 54],6.30 to 7.00
22,NC1=Nc2c(Cl)cc(Cl)cc2C1(O)c1ccccc1 (stereo not shown) [Compound 55],5.30 to 6.00

row,Structure (SMILES),pIC50
1,COc1cc2c(cc1OC)C(O)(c1ccccc1)C(N)=N2 (stereo not shown) [Compound 56],6.30 to 7.00
2,NC1=Nc2cc3c(cc2C1(O)c1ccccc1)OCO3 (stereo not shown) [Compound 57],6.30 to 7.00
3,NC1=Nc2ccc(Cl)cc2C1(O)c1cccc2cccnc12 (stereo not shown) [Compound 58],6.30 to 7.00
4,NC1=Nc2ccc(Cl)cc2C1(O)c1cccc2ncccc12 (stereo not shown) [Compound 59],6.30 to 7.00
5,NC1=Nc2ccc(Cl)cc2C1(O)c1nccs1 (stereo not shown) [Compound 60],5.30 to 6.00
6,COc1ccc2c(c1)C(O)(c1cc(OC)cc3ccccc13)C(N)=N2 (stereo not shown) [Compound 61],4.82 to 5.30
7,NC1=Nc2ccc(O)cc2C1(O)c1ccccc1 (stereo not shown) [Compound 62],4.82 to 5.30
8,COc1cc(C2(O)C(N)=Nc3ccc(C)cc32)c2ccccc2c1 (stereo not shown) [Compound 63],4.82 to 5.30
9,CCOc1nc(Cl)ccc1C1(O)C(N)=Nc2ccc(C)cc21 (stereo not shown) [Compound 64],4.82 to 5.30
10,NC1=Nc2ccc(OCc3ccccc3)cc2C1(O)c1ccccc1 (stereo not shown) [Compound 65],4.82 to 5.30
11,NC1=Nc2ncccc2C1(O)c1ccccc1 (stereo not shown) [Compound 66],4.82 to 5.30
12,NC1=Nc2ccc(Cl)cc2C1(O)c1cccc2c1OCC2 (stereo not shown) [Compound 67],7.00 to 9.00
13,CN(C)c1ccc(C2(O)C(N)=Nc3ccc(Cl)cc32)c2ccccc12 (stereo not shown) [Compound 68],7.00 to 9.00
14,NC1=Nc2ccc(Cl)cc2C1(O)c1cccc2c1oc1ccccc12 (stereo not shown) [Compound 69],6.30 to 7.00
15,COc1ccccc1C1(O)C(N)=Nc2ccc(Cl)cc21 (stereo not shown) [Compound 70],7.00 to 9.00
16,Cc1ccccc1C1(O)C(N)=Nc2ccc(Cl)cc21 (stereo not shown) [Compound 71],7.00 to 9.00
17,COc1ccc(C2(O)C(N)=Nc3ccc(Cl)cc32)cc1 (stereo not shown) [Compound 72],6.00 to 6.30
18,COc1cccc(C2(O)C(N)=Nc3ccc(Cl)cc32)c1OC (stereo not shown) [Compound 73],7.00 to 9.00
19,NC1=Nc2ccc(Cl)cc2C1(O)CCc1ccccc1 (stereo not shown) [Compound 74],6.30 to 7.00
20,CC(C)(C)C1(O)C(N)=Nc2ccc(Cl)cc21 (stereo not shown) [Compound 75],6.30 to 7.00
21,CC(C)Oc1ccc2c(c1)C(O)(c1ccccc1)C(N)=N2 (stereo not shown) [Compound 76],6.30 to 7.00
22,NC1=Nc2cc3c(cc2C1(O)c1ccccc1)OCCO3 (stereo not shown) [Compound 77],6.30 to 7.00

# The remaining lines, values ahead:
row,pIC50,Structure (SMILES)
1,7.00 to 9.00,COc1ccc(C2(O)C(N)=Nc3ccc(Cl)cc32)c2ccccc12 (stereo not shown) [Compound 78]
2,5.30 to 6.00,NC1=Nc2ccc(Cl)cc2C1(O)c1ccncc1 (stereo not shown) [Compound 79]
3,7.00 to 9.00,CN(C)c1ccccc1C1(O)C(N)=Nc2ccc(Cl)cc21 (stereo not shown) [Compound 80]
4,6.30 to 7.00,NC1=Nc2ccc(Cl)cc2C1(O)c1cccc2cnccc12 (stereo not shown) [Compound 81]
5,7.00 to 9.00,NC1=Nc2ccc(Cl)cc2C1(O)c1cccc2ccsc12 (stereo not shown) [Compound 82]
6,6.30 to 7.00,NC1=Nc2ccc(Cl)cc2C1(O)c1ccc(F)cc1 (stereo not shown) [Compound 83]
7,6.30 to 7.00,Cc1cccc(C2(O)C(N)=Nc3ccc(Cl)cc32)c1C (stereo not shown) [Compound 84]
8,4.82 to 5.30,NC1=Nc2ccc(Cl)cc2C1(O)c1ccc(O)cc1 (stereo not shown) [Compound 85]
9,7.00 to 9.00,COc1ccc(C2(O)C(N)=Nc3ccc(Cl)cc32)c(OC)c1 (stereo not shown) [Compound 86]
10,6.30 to 7.00,NC1=Nc2ccc(-c3ccccc3)cc2C1(O)c1ccccc1 (stereo not shown) [Compound 87]
11,5.30 to 6.00,N#Cc1ccc2c(c1)C(O)(c1ccccc1)C(N)=N2 (stereo not shown) [Compound 88]
12,6.30 to 7.00,NC1=Nc2ccc(Cl)cc2C1(O)c1ccccc1F (stereo not shown) [Compound 89]
13,6.30 to 7.00,Cc1ccc(C2(O)C(N)=Nc3ccc(Cl)cc32)c(C)c1 (stereo not shown) [Compound 90]
14,6.30 to 7.00,NC1=Nc2ccc(Cl)cc2C1(O)C1CC1 (stereo not shown) [Compound 91]
15,6.30 to 7.00,NC1=Nc2ccc(CCc3ccccc3)cc2C1(O)c1ccccc1 (stereo not shown) [Compound 92]
16,6.30 to 7.00,NC1=Nc2ccc(CCCC3CCCCC3)cc2C1(O)c1ccccc1 (stereo not shown) [Compound 93]
17,5.30 to 6.00,NC1=Nc2ccc(Cl)cc2C1(O)c1cccc2nsnc12 (stereo not shown) [Compound 94]
18,6.30 to 7.00,NC1=Nc2ccc(Cl)cc2C1(O)c1cccc(F)c1F (stereo not shown) [Compound 95]
19,7.00 to 9.00,NC1=Nc2ccc(Cl)cc2C1(O)c1ccccc1C(F)(F)F (stereo not shown) [Compound 96]

row,pIC50,Structure (SMILES)
1,7.00 to 9.00,CCc1ccccc1C1(O)C(N)=Nc2ccc(Cl)cc21 (stereo not shown) [Compound 97]
2,6.30 to 7.00,NC1=Nc2ccc(Cl)cc2C1(O)c1ccc(Cl)cc1 (stereo not shown) [Compound 98]
3,4.82 to 5.30,NC1=Nc2ccc(-c3cccnc3)cc2C1(O)c1ccccc1 (stereo not shown) [Compound 99]
4,4.82 to 5.30,NC(=O)c1ccc2c(c1)C(O)(c1ccccc1)C(N)=N2 (stereo not shown) [Compound 100]
5,4.82 to 5.30,CS(=O)(=O)c1ccc2c(c1)C(O)(c1ccccc1)C(N)=N2 (stereo not shown) [Compound 101]
6,4.82 to 5.30,NC1=Nc2ccc(Cl)cc2C1(O)c1ccc(C(=O)O)cc1 (stereo not shown) [Compound 102]
7,4.82 to 5.30,CC(=O)Nc1ccccc1C1(O)C(N)=Nc2ccc(Cl)cc21 (stereo not shown) [Compound 103]
8,6.30 to 7.00,COc1ccc(C#Cc2ccc3c(c2)C(O)(c2ccccc2)C(N)=N3)cc1 (stereo not shown) [Compound 104]
9,6.30 to 7.00,NC1Nc2ccc(-c3nccs3)cc2C1(O)c1ccccc1 (stereo not shown) [Compound 105]
10,6.30 to 7.00,COc1ccc(CCc2ccc3c(c2)C(O)(c2ccccc2)C(N)=N3)cc1 (stereo not shown) [Compound 106]
11,6.30 to 7.00,NC1=Nc2ccc(Cl)cc2C1(O)c1cncc2ccccc12 (stereo not shown) [Compound 107]
12,6.30 to 7.00,NC1=Nc2ccc(Cl)cc2C1(O)c1ccnc2ccccc12 (stereo not shown) [Compound 108]
13,4.82 to 5.30,N#Cc1ccccc1C1(O)C(N)=Nc2ccc(Cl)cc21 (stereo not shown) [Compound 109]
14,6.00 to 6.30,COC(=O)c1ccc2c(c1)C(O)(c1ccccc1)C(N)=N2 (stereo not shown) [Compound 110]
15,7.00 to 9.00,Cn1ccc2cccc(C3(O)C(N)=Nc4ccc(Cl)cc43)c21 (stereo not shown) [Compound 111]
16,6.30 to 7.00,Cc1cc(C)cc(C2(O)C(N)=Nc3ccc(Cl)cc32)c1 (stereo not shown) [Compound 112]
17,6.30 to 7.00,NC1=Nc2ccc(Cl)cc2C1(O)c1ccccc1Cl (stereo not shown) [Compound 113]
18,6.30 to 7.00,NC1=Nc2ccc(Cl)cc2C1(O)c1ccccc1-c1ccccc1Cl (stereo not shown) [Compound 114]
